Results as given in ChEMBL document CHEMBL1156904, “Part II: piperazinyl-glutamate-pyridines as potent orally bioavailable P2Y12 antagonists for inhibition of platelet aggregation” (Bioorg Med Chem Lett, 2010).

Assays:
P2Y purinoceptor 12 = P2Y purinoceptor 12 (Homo sapiens, UniProt Q9H244); test: Inhibition of human P2Y12 receptor expressed in CHO cells
[1] = Antiplatelet activity in human platelet rich plasma assessed as inhibition of ADP-induced platelet aggregation relative to AZD-6140; format: functional
[2] = Metabolic stability in rat microsomes; format: ADME, Microsome
[3] = Antiplatelet activity in human platelet rich plasma assessed as inhibition of ADP-induced platelet aggregation; format: functional
[4] = Metabolic stability in human microsomes; format: ADME, Microsome

P2Y purinoceptor 12, sequence (Q9H244 whole entry): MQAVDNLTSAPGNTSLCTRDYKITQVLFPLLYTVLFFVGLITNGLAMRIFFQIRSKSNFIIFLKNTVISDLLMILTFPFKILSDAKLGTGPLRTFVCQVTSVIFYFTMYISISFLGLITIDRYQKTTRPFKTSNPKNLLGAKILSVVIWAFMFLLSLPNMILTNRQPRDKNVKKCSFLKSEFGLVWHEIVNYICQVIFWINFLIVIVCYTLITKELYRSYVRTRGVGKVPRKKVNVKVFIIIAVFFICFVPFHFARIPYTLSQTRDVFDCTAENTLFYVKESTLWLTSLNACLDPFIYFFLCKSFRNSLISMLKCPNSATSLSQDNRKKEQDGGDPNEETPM

Row | SMILES | Ki (P2Y purinoceptor 12) | Stability [2] | IC50 [3] | Stability [4] | fold change (FC) [1]
1 | CCCCCOC(=O)N1CCN(C(=O)[C@H](CCC(=O)O)NC(=O)c2cc(N3CCCC(OC)C3)cc(-c3ccccc3)n2)CC1 (stereo not given in full) | 31 nM | Stable | 5200 nM | Stable | 6.3
2 | CCCCCOC(=O)N1CCN(C(=O)[C@H](CCC(=O)O)NC(=O)c2cc(N3CCCC(C(N)=O)C3)cc(-c3ccccc3)n2)CC1 (stereo not given in full) | 17 nM | Stable | 7800 nM | Stable | 7.3
3 | CCCCCOC(=O)N1CCN(C(=O)[C@H](CCC(=O)O)NC(=O)c2cc(N3CCN(CC(N)=O)CC3)cc(-c3ccccc3)n2)CC1 | 1.7 nM | Stable | 510 nM | Stable | 1.8
4 | CCCCOC(=O)N1CCN(C(=O)[C@H](CCC(=O)O)NC(=O)c2cc(N3CCC(CN(CC)CC)CC3)cc(-c3ccccc3)n2)CC1 | 7.5 nM | Stable | 2400 nM | Stable | 2.1
5 | CCCCCOC(=O)N1CCN(C(=O)[C@H](CCC(=O)O)NC(=O)c2cc(N3CC[C@H](C(=O)N(C)C)C3)cc(-c3ccccc3)n2)CC1 | 26 nM | Stable | 3000 nM | Stable | 4.1
6 | CCCCCOC(=O)N1CCN(C(=O)[C@H](CCC(=O)O)NC(=O)c2cc(N3CCCC(N4CCCC4)C3)cc(-c3ccccc3)n2)CC1 (stereo not given in full) | 11 nM | Stable | 3300 nM | Stable | 3.3
7 | CCCCCOC(=O)N1CCN(C(=O)[C@H](CCC(=O)O)NC(=O)c2cc(N3CCCC(N)C3)cc(-c3ccccc3)n2)CC1 (stereo not given in full) | 5.5 nM | Stable | 1800 nM | Stable | 2.2
8 | CCCCOC(=O)N1CCN(C(=O)[C@H](CCC(=O)O)NC(=O)c2cc(N3CCC(C(=O)N(C)C)CC3)cc(-c3ccccc3)n2)CC1 | 2.6 nM | Stable | 630 nM | Stable | 0.53
9 | CCCCCOC(=O)N1CCN(C(=O)[C@H](CCC(=O)O)NC(=O)c2cc(N3CCC(CCOC)CC3)cc(-c3ccccc3)n2)CC1 | 11 nM | Stable | 2700 nM | Stable | 3.5
10 | CCCCCCOC(=O)N1CCN(C(=O)[C@H](CCC(=O)O)NC(=O)c2cc(N3CCC(C(=O)N(CC)CC)CC3)cc(-c3ccccc3)n2)CC1 | 4.8 nM | Stable | 820 nM | Stable | 1.7
11 | CCCCOC(=O)N1CCN(C(=O)[C@H](CCC(=O)O)NC(=O)c2cc(N3CCC(CN4CCCC4)CC3)cc(-c3ccccc3)n2)CC1 | 1.5 nM | Stable | 800 nM | Stable | 1
12 | CCCCCOC(=O)N1CCN(C(=O)[C@H](CCC(=O)O)NC(=O)c2cc(N3CCC(CNCC)CC3)cc(-c3ccccc3)n2)CC1 | 1.5 nM | Stable | 950 nM | Stable | 1.2
13 | CCCCCOC(=O)N1CCN(C(=O)[C@H](CCC(=O)O)NC(=O)c2cc(N3CCCC(C(=O)N(CC)CC)C3)cc(-c3ccccc3)n2)CC1 (stereo not given in full) | 26 nM | Stable | 7700 nM | Stable | 4.2
14 | CCCCCOC(=O)N1CCN(C(=O)[C@H](CCC(=O)O)NC(=O)c2cc(N3CCN(CCN(C)C)CC3)cc(-c3ccccc3)n2)CC1 | 8.5 nM | Stable | 510 nM | Stable | 0.7

Continued by falling Ki (P2Y purinoceptor 12), values first:

Row | Ki (P2Y purinoceptor 12) | Stability [2] | IC50 [3] | Stability [4] | SMILES | fold change (FC) [1]
15 | 31 nM | Stable | 7300 nM | Stable | CCCCCOC(=O)N1CCN(C(=O)C(CCC(=O)O)NC(=O)c2cc(N3CCC(COC)C3)cc(-c3ccccc3)n2)CC1 (mixture of isomers) | 10
16 | 24 nM | Stable | 3600 nM | Stable | CCCCCOC(=O)N1CCN(C(=O)[C@H](CCC(=O)O)NC(=O)c2cc(N3CC[C@@H](C(=O)N(C)C)C3)cc(-c3ccccc3)n2)CC1 | 3.8
17 | 18 nM | Stable | 2400 nM | Stable | CCCCCOC(=O)N1CCN(C(=O)[C@H](CCC(=O)O)NC(=O)c2cc(N3CCC[C@H](O)C3)cc(-c3ccccc3)n2)CC1 | 3.7
18 | 12 nM | Stable | 2000 nM | Stable | CCCOC(=O)N1CCN(C(=O)[C@H](CCC(=O)O)NC(=O)c2cc(N3CCC(C(=O)N(CC)CC)CC3)cc(-c3ccccc3)n2)CC1 | 2.3
19 | 10 nM | Stable | 6100 nM | Stable | CCCCCOC(=O)N1CCN(C(=O)[C@H](CCC(=O)O)NC(=O)c2cc(N3CCN(C(=O)N4CCCC4)CC3)cc(-c3ccccc3)n2)CC1 | 14
20 | 9.9 nM | Stable | 2900 nM | Stable | CCCCCOC(=O)N1CCN(C(=O)[C@H](CCC(=O)O)NC(=O)c2cc(N3CCCC(CNC(C)=O)C3)cc(-c3ccccc3)n2)CC1 (stereo not given in full) | 3.4
21 | 8.9 nM | Stable | 680 nM | Stable | CCCCCOC(=O)N1CCN(C(=O)[C@H](CCC(=O)O)NC(=O)c2cc(N3CCN(CCS(C)(=O)=O)CC3)cc(-c3ccccc3)n2)CC1 | 0.81
22 | 8.4 nM | Stable | 520 nM | Stable | CCCCCOC(=O)N1CCN(C(=O)[C@H](CCC(=O)O)NC(=O)c2cc(N3CCN(CCCN(C)C)CC3)cc(-c3ccccc3)n2)CC1 | 0.72
23 | 6.3 nM | Stable | 1500 nM | Stable | CCCCCOC(=O)N1CCN(C(=O)[C@H](CCC(=O)O)NC(=O)c2cc(N3CCN(CCOCCC)CC3)cc(-c3ccccc3)n2)CC1 | 3.1
24 | 5.9 nM | Stable | 2900 nM | Stable | CCCCCOC(=O)N1CCN(C(=O)[C@H](CCC(=O)O)NC(=O)c2cc(N3CCN(CC(=O)N(CC)CC)CC3)cc(-c3ccccc3)n2)CC1 | 3.2
25 | 5.2 nM | Stable | 1600 nM | Stable | CCCCCOC(=O)N1CCN(C(=O)[C@H](CCC(=O)O)NC(=O)c2cc(N3CCN(CC(=O)N4CCCC4)CC3)cc(-c3ccccc3)n2)CC1 | 2.2
26 | 4.5 nM | Stable | 1100 nM | Stable | CCCCCOC(=O)N1CCN(C(=O)[C@H](CCC(=O)O)NC(=O)c2cc(N3CCN(CCN)CC3)cc(-c3ccccc3)n2)CC1 | 1.6
27 | 4 nM | Stable | 2200 nM | Stable | CCCCCOC(=O)N1CCN(C(=O)[C@H](CCC(=O)O)NC(=O)c2cc(N3CCC(CN(CC)CC)CC3)cc(-c3ccccc3)n2)CC1 | 2.7
28 | 3.8 nM | Stable | 1300 nM | Stable | CCCCOC(=O)N1CCN(C(=O)[C@H](CCC(=O)O)NC(=O)c2cc(N3CCC(CNCC)CC3)cc(-c3ccccc3)n2)CC1 | 1.4
29 | 1.5 nM | Stable | 710 nM | Stable | CCCCCOC(=O)N1CCN(C(=O)[C@H](CCC(=O)O)NC(=O)c2cc(N3CCC(CNC)CC3)cc(-c3ccccc3)n2)CC1 | 0.99
